Data: patent US20150073159A1, “Solid State Forms Of Cabazitaxel And Processes For Preparation Thereof” (PLUS CHEMICALS SA, priority 2011, published 2015)

Assays:
[1] = Hygroscopicity and stability test (exposure to controlled relative humidity; water content by Karl-Fischer, form by PXRD); assay type: physicochemical; conditions: for % water content: Karl-Fischer coulometric titration; for Conversion to other forms of Cabazitaxel (in words) / Hygroscopicity (in words): normal atmospheric humidity, 60%, 80% and 100% RH
Experimental: (§1) Powder X-ray Diffraction was performed on an X-Ray powder diffractometer: PanAlytical X'pert Pro; CuKα radiation (λ=1.5418 Å); X'Celerator detector with active length 2.122 degrees 2-theta; laboratory temperature 22-25° C.; zero background sample holders. Prior to analysis, the samples were gently ground using a mortar and pestle to obtain a fine powder. The ground sample was adjusted into a cavity of the sample holder and the surface of the sample was smoothed using a cover glass.
A silicon powder internal standard was used to calibrate the peak positions and to eliminate an effect of the sample preparation. […] The internal standard powder can be mixed with a sample The PXRD diffractogram is then acquired and the current position of the aforementioned internal standard diffraction peak is determined. The difference between the current position of the diffraction and its nominal value of 28.44 degrees 2-theta is calculated. The current positions of all relevant sample peaks are then corrected using the above difference to obtain the true positions of the sample diffractions. The confidence interval for the peak positions was determined to be ±0.1 degrees 2-theta.
Scan range: 3-40 degrees 2-theta; Scan mode: continuous; Step size: 0.0167 degrees; Time per step: 42 s; Sample spin: 16 rpm; Sample holder: zero background silicon plate.
About 100 mg of a sample was placed to a cell with controlled relative humidity. The samples were exposed to 60%, 80% and 100% relative humidity, at a temperature of about room temperature, for a period of about two days. XRPD analysis and water content by Karl-Fischer coulometric titration were carried out before and after the exposure to the defined relative humidity.
Water was determined by KF Oven method (832 KF Thermoprep connected to 831 KF Coulometer). Water from the sample (50 mg of cabazitaxel) was released by nitrogen stream at 130° C. Extraction time was 10 minutes.

[2] = Polymorphic stability on storage (conversion measured by PXRD); assay type: physicochemical
Experimental: As used herein, and unless indicated otherwise, the term “polymorphic stability” in relation to the crystalline forms of Cabazitaxel means that there is less than 20%, 10%, 5%, 1%, 0.5% or 0.1% conversion of crystalline Cabazitaxel to any other solid state form of Cabazitaxel under the specified conditions, as measured by PXRD. In some embodiments, the conversion is 0.5%-20%, 0.5%-10% or 0.5%-5% or 0.5%-1% or 0.1%-1%, or 0.1%-0.5%.
as §1

[3] = 60% RH, about room temperature, about two days
[4] = 80% RH, about room temperature, about two days
[5] = 100% RH, about room temperature, about two days

Row | Structure (SMILES) | Form (crystalline structure determined by PXRD) [1, 3] | % water content [1, 3] [%] | Form (crystalline structure determined by PXRD) [1, 4] | % water content [1, 4] [%] | Form (crystalline structure determined by PXRD) [1, 5] | % water content [1, 5] [%] | Form (crystalline structure determined by PXRD) ([1]; Atmospheric RH) | % water content ([1]; Atmospheric RH) [%] | Conversion to other forms of Cabazitaxel (in words) ([1]; about room temperature) | Hygroscopicity (in words) ([1]; about room temperature) | Period of polymorphic stability ([2]; about 25° C. and 60% relative humidity) | Period of polymorphic stability ([2]; about 40° C. and 75% RH)
1 | CO[C@H]1C(=O)[C@]2(C)[C@@H](OC)C[C@H]3OC[C@@]3(OC(C)=O)[C@H]2[C@H](OC(=O)c2ccccc2)[C@]2(O)C[C@H](OC(=O)[C@H](O)[C@@H](NC(=O)OC(C)(C)C)c3ccccc3)C(C)=C1C2(C)C [Form IV, Cabazitaxel] | Form IV | 0.07 | Form IV | 0.09 | Form IV | 0.09 | Form IV | 0.01 | does not convert to any other forms of Cabazitaxel | low-hygroscopicity form | – | –
2 | CO[C@H]1C(=O)[C@]2(C)[C@@H](OC)C[C@H]3OC[C@@]3(OC(C)=O)[C@H]2[C@H](OC(=O)c2ccccc2)[C@]2(O)C[C@H](OC(=O)[C@H](O)[C@@H](NC(=O)OC(C)(C)C)c3ccccc3)C(C)=C1C2(C)C [Form V, Cabazitaxel] | Form V | 0.21 | Form V | 0.30 | Form V | 0.68 | Form V | 0.08 | does not convert to any other forms of Cabazitaxel | low—hygroscopicity form | – | –
3 | CO[C@H]1C(=O)[C@]2(C)[C@@H](OC)C[C@H]3OC[C@@]3(OC(C)=O)[C@H]2[C@H](OC(=O)c2ccccc2)[C@]2(O)C[C@H](OC(=O)[C@H](O)[C@@H](NC(=O)OC(C)(C)C)c3ccccc3)C(C)=C1C2(C)C [Form II, Cabazitaxel] | Form II | 0.07 | Form II | 0.09 | Form II | 0.11 | Form II | 0.02 | does not convert to any other forms of Cabazitaxel | low-hygroscopicity form | – | –
4 | CO[C@H]1C(=O)[C@]2(C)[C@@H](OC)C[C@H]3OC[C@@]3(OC(C)=O)[C@H]2[C@H](OC(=O)c2ccccc2)[C@]2(O)C[C@H](OC(=O)[C@H](O)[C@@H](NC(=O)OC(C)(C)C)c3ccccc3)C(C)=C1C2(C)C [Form I, Cabazitaxel] | Form I | 0.13 | Form I | 0.14 | Form I | 0.14 | Form I | 0.05 | does not convert to any other forms of Cabazitaxel | low-hygroscopicity form | – | –
5 | CO[C@H]1C(=O)[C@]2(C)[C@@H](OC)C[C@H]3OC[C@@]3(OC(C)=O)[C@H]2[C@H](OC(=O)c2ccccc2)[C@]2(O)C[C@H](OC(=O)[C@H](O)[C@@H](NC(=O)OC(C)(C)C)c3ccccc3)C(C)=C1C2(C)C [Form III, Cabazitaxel] | Form III | 0.14 | Form III | 0.23 | Form III | 0.19 | Form III | 0.05 | does not convert to any other solid state forms of Cabazitaxel | low-hygroscopicity form | at least 6 months | at least 6 months
